Where two headings read alike, the source gives them in different places.
Key:
[1] = target: T1, acetylcholinesterase (Mus musculus, UniProt P21836); assay: biochemical; type: biochemical
T1 construct: A solubilized preparation of acetylcholinesterase was prepared from mouse whole brain (minus cerebellum); from tissue; host or cells: mouse whole brain (minus cerebellum), membrane pellet solubilized with 1% Triton
T1 sequence (P21836 32-614): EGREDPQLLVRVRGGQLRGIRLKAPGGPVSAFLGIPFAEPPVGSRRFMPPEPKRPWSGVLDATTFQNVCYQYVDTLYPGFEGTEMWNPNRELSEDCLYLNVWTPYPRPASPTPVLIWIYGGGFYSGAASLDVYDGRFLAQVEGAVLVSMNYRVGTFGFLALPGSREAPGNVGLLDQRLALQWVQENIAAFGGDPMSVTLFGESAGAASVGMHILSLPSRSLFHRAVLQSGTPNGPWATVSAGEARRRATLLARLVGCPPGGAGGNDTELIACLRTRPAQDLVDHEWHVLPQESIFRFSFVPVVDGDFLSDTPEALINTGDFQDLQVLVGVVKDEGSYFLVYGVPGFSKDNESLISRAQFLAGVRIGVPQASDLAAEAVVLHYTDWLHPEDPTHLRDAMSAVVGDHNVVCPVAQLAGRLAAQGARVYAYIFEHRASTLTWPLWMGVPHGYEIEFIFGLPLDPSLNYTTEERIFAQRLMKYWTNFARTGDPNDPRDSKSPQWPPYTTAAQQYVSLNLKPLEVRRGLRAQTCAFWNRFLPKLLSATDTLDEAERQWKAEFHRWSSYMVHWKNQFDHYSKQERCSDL
Experimental: A solubilized preparation of acetylcholinesterase was prepared from mouse whole brain (minus cerebellum). The brain was homogenized with (100 mg/ml) phosphate buffer; pH 8.0, centrifuged, the supernatant discarded, and the pellet mixed with a similar volume as above of buffer pH 8.0 plus 1% Triton; mixed, centrifuged and the supernatant which contained most of the solubilized enzyme, was used for the subsequent determinations of anticholinesterase activity.
The activity of the enzyme (rate of hydrolysis of substrate, acetylthiocholine) was measured using at least 4 different concentrations of substrate, and at least 3 different concentrations of each inhibitor. The enzyme was incubated with inhibitor for periods ranging for 2-180 mins. at 37° C., substrate was then added, and its rate of hydrolysis measured by the spectrophotometric method of Ellman et al. (1961).

[2] = in vivo; conditions: for absorption from the gastro-intestinal tract compared with physostigmine: from oral versus s.c. LD50; for protection by atropine against lethality: atropine pretreatment; for selectivity ratio / LD50 at 3 h: mouse, in vivo
Experimental: Mice were given one of at least three different doses of each compound, orally or subcutaneously, a minimum of 10 mice allotted to each dose. The number of animals which died at each dose within 3 hours was determined.
This experiment was repeated after the animals had been pretreated with atropine sulphate, which blocks both peripheral and central muscarinic receptors.
What is important is the safety of the drugs and the presence and severity of side effects that may occur at therapeutic doses. A commonly-used measure of drug safety is the therapeutic index--or LD50 /ED50 [formula]
It is assumed that the therapeutic effect of these anticholinesterase agents results from an elevation of brain cholinergic activity. This in turn, should be related to the degree of inhibition of acetylcholinesterase. For the purpose of the computation of the denominator of the therapeutic ratio, there is used the dose of drug that inhibits the activity of acetylcholinesterase by 50%. […] The numerator is the dose found to kill 50% of the animals within […] of a subcutaneous injection.

[3] = system: brain acetylcholinesterase; conditions: for Relative potency to physostigmine after oral administration / Relative potency to physostigmine after subcut. (s.c.) administration / % cholinesterase inhibition 3 hours after s.c. administration: mouse brain; for Relative potency to physostigmine after oral administration / Relative potency to physostigmine after subcut. (s.c.) administration: physostigmine = 100; for relative in vivo activity compared to physostigmine versus in vitro data: comparison of Table 1 with Table 2
Experimental: The effect of each compound on brain acetylcholinesterase in vivo was measured, after subcutaneous or oral administration to mice. Animals were sacrificed, at different times ranging from 0.25-8 hours after drug administration. The brain was rapidly removed, and the enzyme acetylcholinesterase extracted and solubilized with 0.1% Triton, and its ability to hydrolyse acetylthiocholine assessed as described above (in vitro experiments), in comparison with the enzyme removed from mice injected with normal saline.

[4] = system: respiratory depressant effects of morphine; type: in vivo; conditions: rabbits, depending on drug and dose
Experimental: Different doses of the carbamate compounds were injected intravenously with morphine in rabbits Respiration rate, arterial blood gas tensions and pH were monitored continuously before and after drug administration for 4-5 hours. In another series of experiments the effect of the anticholinesterase drugs was assessed on the analgesic effect of opiates in rabbits after application of a nociceptive stimulus, i.e. electrical stimulation of the sciatic nerve.

[5] = incubation of enzyme with inhibitor, 37° C.
[6] = Degree of protection afforded by pretreatment with atropine, ratio of LD50 after pretreatment with atropine sulphate 5 mg/kg to LD50 of drug alone
[7] = Ratio whose head is drawing 10 (Table 3; oral LD50 compared with s.c. LD50), mice, oral versus s.c.
[8] = sc, Therapeutic ratio LD50/ED50 s.c., mice, ED50 = dose inhibiting brain acetylcholinesterase by 50%
[9] = parenteral administration, in words

CC(c1cccc(OC(=O)N2CCOCC2)c1)N(C)C (centres unmarked) [RA11]
IC50 [1]: > 20000 nM
Time of peak activity [1, 5]: 30 min

CC(C)NC(=O)Oc1cccc(C(C)N(C)C)c1 (centres unmarked) [RA13]
absorption from the gastro-intestinal tract compared with physostigmine [2]: more efficiently absorbed from the gastro-intestinal tract than is physostigmine
protection by atropine against lethality ([2]; mice, in words): considerably greater protection
selectivity ratio [2, 6]: 4.5
selectivity ratio [2, 7]: 1.1
LD50 at 3 h ([2]; sc): 65 µmol/kg
selectivity ratio [2, 8]: 1.6
IC50 [1]: 12000 nM
Time of peak activity [1, 5]: 120 min
Relative potency to physostigmine after oral administration ([3]; oral): 5
Relative potency to physostigmine after subcut. (s.c.) administration [3]: 2

CCN(CC)C(=O)Oc1cccc(C(C)N(C)C)c1 (centres unmarked) [RA8, N,N-diethyl-3-[1-(dimethylamino)ethyl]phenyl carbamate]
LD50 at 3 h ([2]; sc): > 568 µmol/kg
selectivity ratio [2, 8]: > 10
IC50 [1]: 35000 nM
Time of peak activity [1, 5]: 30 min
duration of significant brain enzyme inhibition (>30%) ([3]; at ED50 dose): more than 3 hours
relative in vivo activity compared to physostigmine versus in vitro data [3]: relatively more active in vivo compared to physostigmine than one would expect from the in vitro data
Relative potency to physostigmine after oral administration ([3]; oral): 5
% cholinesterase inhibition 3 hours after s.c. administration [3]: 32%
Relative potency to physostigmine after subcut. (s.c.) administration [3]: 2
ED50 after oral administration compared with S.C. injection ([3]; oral versus s.c.): the same as that after S.C. injection
duration of brain acetylcholinesterase inhibition compared with physostigmine or miotine [3, 9]: significantly longer duration

CC(c1cccc(OC(=O)N(C)C)c1)N(C)C (centres unmarked) [RA10]
protection by atropine against lethality ([2]; mice, in words): considerably greater protection
therapeutic ratio (safety margin) compared with physostigmine ([2]; mice, s.c., in words): significantly higher than of physostigmine
selectivity ratio [2, 6]: 5
selectivity ratio [2, 7]: 9.7
LD50 at 3 h ([2]; sc): 14 µmol/kg
selectivity ratio [2, 8]: 12.7
duration of significant antagonism of the respiratory depressant effects of morphine [4]: 3 to 5 h
IC50 [1]: 27 nM
Time of peak activity [1, 5]: 120 min
relative in vivo activity compared to physostigmine versus in vitro data [3]: relatively more active in vivo compared to physostigmine than one would expect from the in vitro data
Relative potency to physostigmine after oral administration ([3]; oral): 92
% cholinesterase inhibition 3 hours after s.c. administration [3]: 7%
Relative potency to physostigmine after subcut. (s.c.) administration [3]: 81

CCN(C)C(=O)Oc1cccc(C(C)N(C)C)c1 (centres unmarked) [RA7, N-ethyl, N-methyl-3[1-(dimethylamino)ethyl]phenyl carbamate]
absorption from the gastro-intestinal tract compared with physostigmine [2]: more efficiently absorbed from the gastro-intestinal tract than is physostigmine
protection by atropine against lethality ([2]; mice, in words): considerably greater protection
LD50 at 3 h ([2]; sc): 46 µmol/kg
Time of peak activity [1]: 90 min
brain enzyme inhibition after 7 hours ([3]; mouse, in vivo): 36%
duration of brain acetylcholinesterase inhibition compared with physostigmine or miotine ([3]; mouse, in vivo): significantly longer duration
duration of significant brain enzyme inhibition (>30%) ([3]; mouse, in vivo): more than 3 hours

CC(c1cccc(OC(=O)NC2CCCCC2)c1)N(C)C (centres unmarked) [RA12]
selectivity ratio [2, 6]: 3.8
selectivity ratio [2, 7]: 3.6
LD50 at 3 h ([2]; sc): 42 µmol/kg
selectivity ratio [2, 8]: 5.8
IC50 [1]: 93 nM
Time of peak activity [1, 5]: 120 min
duration of significant brain enzyme inhibition (>30%) ([3]; at ED50 dose): more than 3 hours
Relative potency to physostigmine after oral administration ([3]; oral): 17
% cholinesterase inhibition 3 hours after s.c. administration [3]: 37%
Relative potency to physostigmine after subcut. (s.c.) administration [3]: 13

CCCN(C)C(=O)Oc1cccc(C(C)N(C)C)c1 (centres unmarked) [RA4, N-methyl, N-propyl-3[1-(dimethylamino)ethyl]phenyl carbamate]
absorption from the gastro-intestinal tract compared with physostigmine [2]: more efficiently absorbed from the gastro-intestinal tract than is physostigmine
protection by atropine against lethality ([2]; mice, in words): considerably greater protection
selectivity ratio [2, 6]: 4.9
selectivity ratio [2, 7]: 1.7
LD50 at 3 h ([2]; sc): 72 µmol/kg
selectivity ratio [2, 8]: 10
IC50 [1]: 1700 nM
Time of peak activity [1, 5]: 60 min
duration of significant brain enzyme inhibition (>30%) ([3]; at ED50 dose): more than 3 hours
Relative potency to physostigmine after oral administration ([3]; oral): 29
% cholinesterase inhibition 3 hours after s.c. administration [3]: 25%
Relative potency to physostigmine after subcut. (s.c.) administration [3]: 13
bioavailability after oral administration compared with physostigmine ([3]; oral, in words): better bioavailability after oral administration than physostigmine
duration of brain acetylcholinesterase inhibition compared with physostigmine or miotine [3, 9]: significantly longer duration

CCCCNC(=O)Oc1cccc(C(C)N(C)C)c1 (centres unmarked) [RA5, N-butyl-3-[1-(dimethylamino)ethyl]phenyl carbamate]
protection by atropine against lethality ([2]; mice, in words): considerably greater protection
selectivity ratio [2, 6]: 5.8
selectivity ratio [2, 7]: 5
LD50 at 3 h ([2]; sc): 19 µmol/kg
selectivity ratio [2, 8]: 7.6
IC50 [1]: 76 nM
Time of peak activity [1, 5]: 120 min
duration of significant brain enzyme inhibition (>30%) ([3]; at ED50 dose): more than 3 hours
relative in vivo activity compared to physostigmine versus in vitro data [3]: relatively more active in vivo compared to physostigmine than one would expect from the in vitro data
Relative potency to physostigmine after oral administration ([3]; oral): 29
% cholinesterase inhibition 3 hours after s.c. administration [3]: 30%
Relative potency to physostigmine after subcut. (s.c.) administration [3]: 36
duration of brain acetylcholinesterase inhibition compared with physostigmine or miotine [3, 9]: significantly longer duration

— patent US4948807A, “Phenyl carbamates” (priority 1985, dated 1990)
